One assay relates to WM3629 cells. As to the kind of experiment: WM3629 cell proliferation assay (1), resazurin, 96-well. It is filed as cell-based. The note with it: inhibition of cell proliferation. As to the method: WM3629 Cell Proliferation Assay (1)
WM3629 cells (#WM3629-01-0001) are obtained from Rockland Immunochemicals Inc (Gilbertsville, PA). Briefly, cells were grown in MCDB 153 medium (Sigma, #M7403, St. Louis, MO) supplemented with 20% Leibovitz's L-15 (ThermoFisher #11415-064, Waltham, MA), 2% heat inactivated fetal bovine serum (ThermoFisher, #A3840001, Waltham, MA), 5 μg/mL Insulin (Bovine Pancreas) (Sigma, #I0516, St. Louis, MO), 1.68 mM Calcium Chloride (Sigma, #C-34006, St. Louis, MO) and 1% Penicillin/Streptomycin/L-Glutamine (ThermoFisher #10378016, Waltham, MA) at 37° C., 5% CO2, and 95% humidity. Cells are expanded until reaching 70-95% confluency at which point they are subcultured or harvested for assay use. A serial dilution of test compound is dispensed into a 96-well black clear bottom plate in triplicate. Four thousand five hundred cells are added per well in 200 μL complete growth medium in the 96-well plate. Plates are incubated for 67-72 hours at 37° C., 5% CO2, and 95% humidity. At the end of the incubation, 40 μL of a 440 μM solution of resazurin (Sigma, #199303, St. Louis, MO) in PBS is added to each well of the plate and plates are incubated for an additional 6-7 hours at 37° C., 5% CO2, and 95% humidity. Plates are read on a Synergy2 or equivalent reader (Biotek, Winooski VT) using an excitation of 540 nm and an emission of 600 nm. Data is analyzed using Prism software (GraphPad, San Diego, CA) to calculate IC50 values.

Another assay addresses T1, C-Raf kinase (Homo sapiens, UniProt P04049, Y340D/Y341D).
T1 construct: Y340D,; GST (N); purchased Sigma
As to the kind of experiment: Biochemical assay for C-Raf.2 (coupled pyruvate kinase/lactate dehydrogenase). The note with it: read-out: CRAF.2 IC50. As for the experimental part:
Biochemical Assay for C-Raf.2
Activity of C-Raf kinase (SEQ. ID NO: 3) was determined spectroscopically using a coupled pyruvate kinase/lactate dehydrogenase assay that continuously monitors the ATP hydrolysis-dependent oxidation of NADH (e.g., Schindler et al., Science, 2000, 289, 1938-1942). Assays were conducted in 384-well plates (25 μL final volume) using 3.84 nM C-Raf (Eurofins), 1.5 units pyruvate kinase, 2.1 units lactate dehydrogenase, 1 mM phosphoenol pyruvate, 0.7 mM NADH, 50 nM MEK (SignalChem), and 1 mM ATP in assay buffer (100 mM Tris, pH 7.5, 15 mM MgCl2, 0.5 mM DTT, 0.1% octyl-glucoside, 0.002% (w/v) BSA, and 0.002% Triton X-100). Inhibition of C-Raf was measured by adding serial diluted test compound (final assay concentration of 1% DMSO). A decrease in absorption at 340 nm was monitored hourly for 4 h at 30° C. on a multi-mode microplate reader (BioTek). The reaction rate was calculated using the 2 to 3 h time frame. The reaction rate at each concentration of compound was converted to percent inhibition using controls (i.e., reaction with no test compound and reaction with a known inhibitor) and IC50 values were calculated by fitting a four-parameter sigmoidal curve to the data using Prism (GraphPad software).

In the next assay the test system is H2405 cells. Put plainly: H2405 cell proliferation assay (2), resazurin, 384-well. It is filed as cell-based. The note with it: Homo sapiens, NCI-H2405, inhibition of cell proliferation, 67-72 h. As to the method: H2405 Cell Proliferation Assay (2)
H2405 cells (catalog #CRL-5994) are obtained from the American Type Culture Collect (ATTC, Manassas, VA). Briefly, cells were grown in RPMI 1640 supplemented with 5% characterized fetal bovine serum (Invitrogen, Carlsbad, CA) and 1% Penicillin/Streptomycin/L-Glutamine at 37° C., 5% CO2, and 95% humidity. Cells are expanded until reaching 70-95% confluency at which point they are sub-cultured or harvested for assay use. A serial dilution of test compound is dispensed into a 384-well black clear bottom plate in triplicate. Seven hundred fifty cells are added per well in 50 μL complete growth medium in the 384-well plate. Plates are incubated for 67-72 h at 37° C., 5% CO2, and 95% humidity. At the end of the incubation, 10 μL of a 440 μM solution of resazurin (Sigma, St. Louis, MO) in PBS is added to each well of the plate and plates are incubated for an additional 5-6 h at 37° C., 5% CO2, and 95% humidity. Plates are read on a Synergy2 or equivalent reader (Biotek, Winooski VT) using an excitation of 540 nm and an emission of 600 nm. Data is analyzed using Prism software (GraphPad, San Diego, CA) to calculate IC50 values
A general note: The colour change of resazurin is a common sign of viable cells or microbes.

The next assay has as its system Miapaca-2 cells. As to the kind of experiment: MiaPaca-2 cell proliferation assay (1), resazurin, 96-well. It is filed as cell-based. The note with it: Homo sapiens, MIA PaCa-2, inhibition of cell proliferation. The essentials: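 Three thousand cells per well in DMEM with 10% FBS and 2.5% horse serum exposed to serially diluted compound in triplicate for 67-72 h at 37 °C, 5% CO2. Viability by resazurin (additional 5-6 h), fluorescence ex 540/em 600 nm; IC50 calculated.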

Molecules are shown by their SMILES.

T1 sequence (P04049 307-648 Y340D/Y341D): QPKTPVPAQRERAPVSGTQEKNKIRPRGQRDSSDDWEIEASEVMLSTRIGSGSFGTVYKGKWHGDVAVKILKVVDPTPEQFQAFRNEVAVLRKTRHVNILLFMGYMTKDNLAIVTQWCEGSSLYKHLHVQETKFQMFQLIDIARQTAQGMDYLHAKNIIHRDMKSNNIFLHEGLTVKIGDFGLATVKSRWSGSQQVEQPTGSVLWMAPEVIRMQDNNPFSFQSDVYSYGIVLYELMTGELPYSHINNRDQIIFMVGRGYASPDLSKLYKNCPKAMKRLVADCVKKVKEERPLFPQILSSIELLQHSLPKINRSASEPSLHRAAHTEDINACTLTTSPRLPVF

Consider `CNC(=O)c1cc(-c2cc(-c3cc(NC(=O)N4CC[C@H](C(F)(F)F)C4)ccc3C)ccn2)ccn1` [Example 215], for which the IC50 in the assay with WM3629 cells is no more than 100 nM; at C-Raf kinase, no more than 100 nM; in the assay with H2405 cells, 100 to 500 nM.
As for `Cc1cc(F)c(NC(=O)N2CCC(C)(C#N)CC2)cc1-c1cc(OCCO)nc(-c2ccnc3[nH]ncc23)c1` [Example 92], the 50% inhibitory concentration (IC50) in the assay with Miapaca-2 cells lay in the range of 1000 to 10000 nM.
Turning to `Cc1cc(F)c(NC(=O)NCCC2(C)CC2)cc1-c1cc(OCCO)nc(-c2ccnc3[nH]ncc23)c1` [Example 87], in the assay on Miapaca-2 cells, the IC50 lay within 1000 to 10000 nM.
As to `COC(=O)Nc1cc(-c2cncc(-c3cc(NC(=O)N4CC[C@H](C(F)(F)F)C4)ccc3C)c2)ncn1` [Example 224], the 50% inhibitory concentration (IC50) with WM3629 cells, at C-Raf kinase and in the assay with H2405 cells was no more than 100 nM in each case.
As to `Cc1cc(F)c(NC(=O)NCC[C@@H]2CCO2)cc1-c1cc(OCCO)nc(-c2ccnc3[nH]ncc23)c1` [Example 89], the IC50 in the assay with Miapaca-2 cells lay within 1000 to 10000 nM.
With `CNC(=O)c1cc(-c2cncc(-c3cc(NC(=O)N4CC[C@H](C(F)(F)F)C4)ccc3C)c2)ccn1` [Example 228], the IC50 at C-Raf kinase and in the assay on H2405 cells was 100 to 500 nM each time.
For `CNC(=O)c1cc(-c2cc(-c3cc(NC(=O)N4CC[C@H](C(C)C)C4)ccc3C)ccn2)ccn1` [Example 225], the IC50 in the assay with WM3629 cells is no more than 100 nM; at C-Raf kinase, 100 to 500 nM.
On to `CNC(=O)c1cc(-c2cncc(-c3cc(NC(=O)N4CC[C@H](C(F)(F)F)C4)ccc3C)c2)ncn1` [Example 220], for which the half-maximal inhibitory concentration (IC50) on C-Raf kinase lay within 100 to 500 nM; with Miapaca-2 cells, 1000 to 10000 nM.
On to `Cc1cc(F)c(NC(=O)N[C@@H]2CC[C@H](F)C2)cc1-c1cc(OCCO)nc(-c2ccnc3[nH]ncc23)c1` [Example 88], for which the half-maximal inhibitory concentration (IC50) with Miapaca-2 cells lay within 1000 to 10000 nM.
With `CNC(=O)c1cc(-c2cncc(-c3cc(NC(=O)N4CC[C@H](C(C)C)C4)ccc3C)c2)ncn1` [Example 226], the IC50 at C-Raf kinase was 100 to 500 nM.
Turning to `Cc1ccc(NC(=O)N2CC[C@H](C)C2)cc1-c1cncc(-c2cc(NC(=O)C3CC3)ncn2)c1` [Example 227], the IC50 is no more than 100 nM at C-Raf kinase and 1000 to 10000 nM in the assay on H2405 cells.
On to `COC(C)(C)CCNC(=O)Nc1cc(-c2cc(OCCO)nc(-c3ccnc4[nH]ccc34)c2)c(C)cc1F` [Example 90], for which the 50% inhibitory concentration (IC50) with Miapaca-2 cells was in the range of 1000 to 10000 nM.
In the case of `CNC(=O)c1cc(-c2cncc(-c3cc(NC(=O)N4CC[C@H](C(C)C)C4)ccc3C)c2)ccn1` [Example 229], the concentration for half-maximal inhibition (IC50) at C-Raf kinase was no more than 100 nM; in the assay on H2405 cells, 500 to 1000 nM.
On to `COC(=O)Nc1cc(-c2cccc(-c3cc(NC(=O)NCCC(C)(C)OC)c(F)cc3C)c2)ccn1` [Example 85], for which, in the assay with Miapaca-2 cells, the IC50 fell in the range of 500 to 1000 nM.
Regarding `COC(C)(C)CCNC(=O)Nc1cc(-c2cc(OCCO)nc(-c3ccnc4[nH]ncc34)c2)c(C)cc1F` [Example 91], in the assay on Miapaca-2 cells, the concentration for half-maximal inhibition (IC50) is 1000 to 10000 nM.

The term IC50 denotes the concentration at which inhibition is half-maximal.

Source of the values: US20230357179A1, “RAF KINASE INHIBITORS AND METHODS OF USE THEREOF” (Deciphera Pharmaceuticals, LLC, priority 2021, published 2023).
